# Assay results taken from US11338026B2, “Identification of immunologically protective neo-epitopes for the treatment of cancers” (THE UNIVERSITY OF CONNECTICUT, priority 2014, dated 2022).
# “Also recorded” adds a separate entry of the source. Like-named read-outs stand apart in the source and are kept apart here. Peptide text beside a SMILES is read from it.
# Columns and labels:
# CD8+ cells [1] = assay: Intracellular IFN-γ assay by FACS (ICS) on lymphocytes of immunized mice; format: in vivo, BALB/c mice; conditions: mice immunized with the WT counterpart of the named neo-epitope
# Description: Intracellular IFN-γ assay by FACS and ELISPOT. Lymphocytes were incubated either with or without 1-10 μg/ml peptide. GolgiPlug (BD Biosciences, San Jose, Calif.) was added 1 h later. After incubation of 12 to 16 h, cells were stained for CD44 (clone IM7), CD4 (clone GK1.5) and CD8 (clone 53-6.7) (BD Biosciences, San Jose, Calif.), fixed and permeabilized using the Cytofix/Cytoperm™ kit (BD Biosciences, San Jose, Calif.), and stained for intracellular IFN-γ using Phycoerythrin-conjugated anti-mouse IFN-γ (clone XMG1.2, BD Biosciences, San Jose, Calif.). Cells were stained with 1 μl antibody/million cells in 50 μl staining buffer (PBS with 1% bovine serum albumin) and incubated for 20 min at 4° C. in the dark, or according to the manufacturer's instructions. Cells without peptide stimulation were used as a negative control, and the values for these controls was very close to the values seen with the negative control peptide. Typically, 95,000-129,000 lymphocytes (14,500-17,000 CD8+CD4− cells) were acquired. The background is consistently very low (10% of the signal).
# (§1) All 18 peptides were used to immunize BALB/c mice. The draining lymph nodes (dLNs) of immunized mice were harvested one week after the single immunization, and the cells were stimulated in vitro for 16 h without any added peptide, the mutant peptide used for immunization, or the corresponding wild type peptide. The CD8+ cells were analyzed for activation (CD44+) and effector function (intracellular IFNγ+). (see Materials and Methods regarding the details of FACS analysis.) All possible patterns of immune-reactivity were observed (FIG. 3A): no immune response (12/18), a mutant peptide-specific, i.e. tumor-specific immune response (5/18), and a cross-reactive response between the mutant and corresponding wild type peptides (1/18).
# H-2 K^d = target: T1, H-2 K^d (Mus musculus, UniProt P01902); assay: Binding assays: inhibition of binding of a radiolabeled standard peptide to purified MHC molecules
# T1 sequence (P01902 22-368): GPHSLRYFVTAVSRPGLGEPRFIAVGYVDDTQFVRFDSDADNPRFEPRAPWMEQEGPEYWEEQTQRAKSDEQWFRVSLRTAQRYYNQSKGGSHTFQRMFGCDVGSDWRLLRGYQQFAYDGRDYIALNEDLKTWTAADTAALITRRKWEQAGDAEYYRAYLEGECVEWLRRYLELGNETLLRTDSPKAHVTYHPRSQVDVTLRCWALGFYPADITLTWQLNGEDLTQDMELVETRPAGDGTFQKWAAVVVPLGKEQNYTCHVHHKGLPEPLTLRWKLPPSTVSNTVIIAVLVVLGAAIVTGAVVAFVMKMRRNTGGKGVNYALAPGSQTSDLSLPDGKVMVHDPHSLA
# T1 sequence (P01887 21-119 partner): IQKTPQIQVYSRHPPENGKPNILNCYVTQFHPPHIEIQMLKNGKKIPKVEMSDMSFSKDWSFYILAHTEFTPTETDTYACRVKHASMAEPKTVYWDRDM
# Description: Binding assays. Binding of peptides to H-2 K^d was determined using quantitative assays based on the inhibition of binding of a radiolabeled standard peptide to purified MHC molecules essentially as described previously. […] Under the conditions utilized, where [label]<[MHC] and IC50≥[MHC], the measured IC50 values are reasonable approximations of the dissociation constant values.
# CD8+ cells [2] = assay: IFNγ ELISPOT on CD8+ cells of immunized mice; format: in vivo, BALB/c mice; conditions: for ELISpot: mice immunized with mutant peptide; for CD8 T cell response of immunized mice: ELISPOT
# Description: For the ELISPOT assays, the negative controls were CD8+ cells from immunized mice without peptide stimulation. […] The magnitude of responses was rated by mean spot numbers per million CD8+ cells: 5-10 (+); 11-20 (++); 21-50 (+++); 51-100(++++) and >100(+++++).
# as §1
# [3] = mutant peptide, read-out: Measured IC50 for K^d (Mut/WT): Mut
# [4] = WT counterpart peptide, read-out: Measured IC50 for K^d (Mut/WT): WT
SMILES,IC50 (H-2 K^d) [µM],ELISpot (CD8+ cells [2]),also measured
CC(C)[C@H](NC(=O)[C@H](CO)NC(=O)[C@@H](NC(=O)[C@H](CCCCN)NC(=O)[C@H](C)NC(=O)[C@H](CCCCN)NC(=O)[C@H](CO)NC(=O)[C@@H](NC(=O)[C@H](Cc1ccccc1)NC(=O)[C@H](Cc1ccc(O)cc1)NC(=O)CN)C(C)C)[C@@H](C)O)C(=O)O (racemic) [Abr],,,immunogenicity of WT counterpart (functional effector T cells) (CD8+ cells [1]): elicited functional effector T cells in vivo
CC(C)C[C@H](NC(=O)CNC(=O)[C@H](CC(C)C)NC(=O)[C@H](CC(C)C)NC(=O)[C@H](CO)NC(=O)[C@H](CCCNC(=N)N)NC(=O)[C@H](CCCNC(=N)N)NC(=O)[C@H](CO)NC(=O)[C@H](CO)NC(=O)[C@H](Cc1c[nH]c2ccccc12)NC(=O)[C@@H](N)CO)C(=O)O [9430016H08Rik] (H-SWSSRRSLLGL-OH),,,"IC50 (H-2 K^d; WT counterpart peptide, read-out: Measured IC50 for K^d (Mut/WT): WT, class symbol): > 70 µM"
"CSCC[C@H](NC(=O)[C@@H]1CCCN1C(=O)[C@@H](NC(=O)[C@H](Cc1ccc(O)cc1)NC(=O)[C@@H](N)CC(=O)O)C(C)C)C(=O)N[C@@H](CCC(=O)O)C(=O)N[C@@H](CCC(N)=O)C(=O)N1CCC[C@H]1C(=O)O [Alkbh6.1, D(y/D)VPMEQP] (H-DYVPMEQP-OH)",> 70,,IC50 (H-2 K^d; [3]): 60.9 µM
CSCC[C@H](NC(=O)[C@@H]1CCCN1C(=O)[C@@H](NC(=O)[C@H](Cc1ccc(O)cc1)NC(=O)[C@@H](N)CC(=O)O)C(C)C)C(=O)N[C@@H](CCC(=O)O)C(=O)N[C@@H](CCC(N)=O)C(=O)N1CCC[C@H]1C(=O)N[C@@H](CCCNC(=N)N)C(=O)N1CCC[C@H]1C(=O)O [Alkbh6.3] (H-DYVPMEQPRP-OH; N-terminus and C-terminus assumed),,,IC50 (H-2 K^d; [4]): 23.6 µM
CC(C)C[C@H](NC(=O)[C@H](CCC(=O)O)NC(=O)[C@H](Cc1c[nH]c2ccccc12)NC(=O)[C@H](CS)NC(=O)[C@@H](NC(=O)[C@H](CCC(=O)O)NC(=O)[C@H](CS)NC(=O)[C@H](Cc1ccc(O)cc1)NC(=O)[C@H](C)N)[C@@H](C)O)C(=O)O [Apc] (H-AYCETCWEL-OH),,+++++ (>100 spots/106 CD8 = +++++),IC50 (H-2 K^d; [4]): 0.06 µM
"CSCC[C@H](NC(=O)[C@H](CC(C)C)NC(=O)CNC(=O)[C@@H]1CCCN1C(=O)[C@H](Cc1ccccc1)NC(=O)[C@@H](N)C(C)C)C(=O)N[C@@H](CCC(=O)O)C(=O)N[C@@H](CC(C)C)C(=O)O [Atxn10.2, VFPGLME(l/R)] (H-VFPGLMEL-OH; N-terminus and C-terminus assumed)",,,"IC50 (H-2 K^d; [4]): 1.11 µM; CD8 T cell response of immunized mice (CD8+ cells [2]; text): did not elicit a detectable response at all; CD8 T cell response of immunized mice (CD8+ cells [2]; text, listed as Atxn 10.2): did not elicit a detectable CD8 response"
CC(C)C[C@H](NC(=O)[C@H](CCC(=O)O)NC(=O)[C@H](CC(=O)O)NC(=O)[C@H](CCC(=O)O)NC(=O)[C@H](CC(C)C)NC(=O)[C@H](CC(C)C)NC(=O)CNC(=O)[C@H](CCC(N)=O)NC(=O)[C@H](CC(C)C)NC(=O)[C@@H](N)CCC(=O)O)C(=O)O [Ccdc136] (H-ELQGLLEDEL-OH; N-terminus and C-terminus assumed),,,IC50 (H-2 K^d; [4]): 4.54 µM; CD8 T cell response of immunized mice (CD8+ cells [2]): did not elicit a detectable response at all; also recorded: did not elicit a detectable CD8 response
"CC(C)C[C@H](N)C(=O)N[C@@H](Cc1ccc(O)cc1)C(=O)N[C@@H](CC(=O)O)C(=O)N[C@H](C(=O)N[C@@H](CC(=O)O)C(=O)N[C@@H](C)C(=O)N[C@@H](C)C(=O)N[C@@H](Cc1ccccc1)C(=O)O)C(C)C [Cpsf2, L(y/D)DVDAAF] (H-LYDVDAAF-OH)",> 70,+++ (21-50 spots/10^6 CD8 = +++),IC50 (H-2 K^d; [3]): 1.41 µM
CC[C@H](C)[C@H](NC(=O)[C@H](C)NC(=O)[C@H](Cc1ccc(O)cc1)NC(=O)[C@H](CCC(N)=O)NC(=O)[C@@H](NC(=O)[C@H](CC(C)C)NC(=O)[C@H](Cc1ccc(O)cc1)NC(=O)[C@@H]1CCCN1)[C@@H](C)O)C(=O)N[C@H](C(=O)N[C@@H](CCSC)C(=O)N[C@@H](CC(C)C)C(=O)O)[C@@H](C)CC [Dhx8.1] (H-PYLTQYAIIML-OH),1.65,+++++ (>100 spots/10^6 CD8 = +++++),IC50 (H-2 K^d; [3]): 2.19 µM
"CC[C@H](C)[C@H](NC(=O)[C@H](C)NC(=O)[C@H](Cc1ccc(O)cc1)NC(=O)[C@H](CCC(N)=O)NC(=O)[C@@H](NC(=O)[C@H](CC(C)C)NC(=O)[C@H](Cc1ccc(O)cc1)NC(=O)[C@@H]1CCCN1)[C@@H](C)O)C(=O)O [Dhx8.2, P(y/D)LTQYAI] (H-PYLTQYAI-OH; N-terminus and C-terminus assumed)",,+++++ (>100 spots/10^6 CD8 = +++++),
"CC[C@H](C)[C@H](NC(=O)[C@@H](NC(=O)[C@H](C)NC(=O)[C@H](Cc1ccc(O)cc1)NC(=O)[C@H](CCC(N)=O)NC(=O)[C@@H](NC(=O)[C@H](CC(C)C)NC(=O)[C@H](Cc1ccc(O)cc1)NC(=O)[C@@H]1CCCN1)[C@@H](C)O)[C@@H](C)CC)C(=O)O [Dhx8.3, P(y/D)LTQYAII] (H-PYLTQYAII-OH)",1.42,+++++ (>100 spots/10^6 CD8 = +++++),IC50 (H-2 K^d; [3]): 0.244 µM
CC[C@H](C)[C@H](NC(=O)[C@H](C)NC(=O)[C@H](Cc1ccc(O)cc1)NC(=O)[C@H](CCC(N)=O)NC(=O)[C@@H](NC(=O)[C@H](CC(C)C)NC(=O)[C@H](Cc1ccc(O)cc1)NC(=O)[C@@H]1CCCN1)[C@@H](C)O)C(=O)N[C@H](C(=O)N[C@@H](CCSC)C(=O)O)[C@@H](C)CC [Dhx8.4] (H-PYLTQYAIIM-OH),6.26,+++ (21-50 spots/10^6 CD8 = +++),IC50 (H-2 K^d; [3]): 6.57 µM
CC(C)C[C@H](NC(=O)[C@H](CCCNC(=N)N)NC(=O)[C@@H]1CCCN1C(=O)[C@H](CO)NC(=O)[C@H](CCCNC(=N)N)NC(=O)[C@H](Cc1ccc(O)cc1)NC(=O)[C@H](CCC(N)=O)NC(=O)[C@H](CCCNC(=N)N)NC(=O)[C@H](CCC(N)=O)NC(=O)[C@H](CC(C)C)NC(=O)[C@@H](N)CCCCN)C(=O)O [Mast2] (H-KLQRQYRSPRL-OH),8.51,,
CC[C@H](C)[C@H](NC(=O)[C@H](CS)NC(=O)CNC(=O)[C@H](Cc1c[nH]cn1)NC(=O)[C@H](Cc1ccccc1)NC(=O)CN)C(=O)N[C@@H](Cc1c[nH]cn1)C(=O)N[C@@H](CCC(=O)O)C(=O)N[C@H](C(=O)N[C@@H](CC(C)C)C(=O)O)C(C)C [Slit3] (H-GFHGCIHEVL-OH),,,"IC50 (H-2 K^d; mutant neo-epitopes, read-out: measured IC50 / affinity for binding to K^d): ~50 µM"
CC[C@H](C)[C@H](NC(=O)[C@H](CS)NC(=O)[C@H](CC(C)C)NC(=O)[C@H](C)NC(=O)[C@H](CCC(N)=O)NC(=O)[C@H](CC(C)C)NC(=O)[C@H](CCSC)NC(=O)[C@H](Cc1ccc(O)cc1)NC(=O)[C@@H](N)CO)C(=O)N1CCC[C@H]1C(=O)O [Tnpo3.3] (H-SYMLQALCIP-OH),0.111,,
"CSCC[C@H](NC(=O)[C@H](Cc1ccc(O)cc1)NC(=O)[C@@H](N)CO)C(=O)N[C@@H](CC(C)C)C(=O)N[C@@H](CCC(N)=O)C(=O)N[C@@H](C)C(=O)N[C@@H](CC(C)C)C(=O)N[C@@H](CS)C(=O)O [Tnpo3.4, (sy/LD)MLQALC] (H-SYMLQALC-OH)",0.089,,
"CC(C)C[C@H](NC(=O)[C@H](CC(=O)O)NC(=O)[C@H](CC(C)C)NC(=O)[C@H](Cc1ccc(O)cc1)NC(=O)[C@@H](N)CCC(=O)O)C(=O)N[C@@H](CCC(N)=O)C(=O)N[C@H](C(=O)N[C@@H](CCC(N)=O)C(=O)O)[C@@H](C)O [Zfp236.1, E(y/D)LDLQTQ] (H-EYLDLQTQ-OH)",> 70,,
"CC(C)C[C@H](NC(=O)[C@H](CC(=O)O)NC(=O)[C@H](CC(C)C)NC(=O)[C@H](Cc1ccc(O)cc1)NC(=O)[C@@H](N)CCC(=O)O)C(=O)N[C@@H](CCC(N)=O)C(=O)N[C@H](C(=O)N[C@@H](CCC(N)=O)C(=O)NCC(=O)O)[C@@H](C)O [Zfp236.2, E(y/D)LDLQTQG] (H-EYLDLQTQG-OH)",> 70,,
